Values quoted from earlier work, collected in patent US10946011B2 (Martin Pharmaceuticals Inc., priority 2018, dated 2021).

PKa: 6.80
Structure (SMILES): OCC(CO)(CO)NCCCNC(CO)(CO)CO [BIS-Tris Propane]
